Source: patent publication US20240173276A1, “METHODS AND COMPOSITIONS FOR INHIBITING FORMATION OF THE HIV LATENT RESERVOIR” (The University of North Carolina at Chapel Hill, priority 2021, published 2024)

Key:
[1] = tested on: HIV-GFP infected primary CD4 T cells; test: Primary CD4 T cell latency model (HIV-GFP reporter, flow cytometry of GFP- cells); assay type: cell-based, human; conditions: for effect on the formation of latently infected (GFP-) cells: cultured in the presence of inhibitor from 2 dpi for up to 4 weeks, FIG. 1B
From the text: Viruses and cell culture: Stocks of HIV-GFP were generated by co-transfection of 293T cells with the pNL4-3-Δ6-dreGFP plasmid (generous gift of Robert Siliciano) and the packaging plasmids PAX2-GagPol) and MD2-VSVG, using Mirus LT1 reagent. At 2 days post transfection virus was harvested from the supernatant and clarified by low speed centrifugation, followed by filtration through a […] filter.
Primary cell latency model: Primary CD4 T cells were isolated from fresh whole blood (purchased from Gulf Coast Regional Blood Center) by Ficoll isolation of peripheral blood mononuclear cells (PBMCs), then magnetic negative selection of CD4 T cells using a CD4 enrichment kit (Stem Cell). Total primary CD4 T cells were activated using anti-CD3/CD28 beads (Thermo Fisher) at a ratio of one bead per cell for 2 days, then infected with HIV-GFP viral supernatant by spinocculation for 2 hrs at 600 g with 4 µg/mL polybrene. The infected cells were then resuspended in fresh RPMI with IL-2 (Peprotech) at 100 U/mL and incubated for two days before actively infected (GFP^+) cells were sorted using a FACSAria flow sorter (Becton Dickson). The purified infected cells (GFP^+) were then maintained at 1-2 million/mL with fresh media and IL-2 added every 2-3 days for 2 weeks. […] Other small molecule inhibitors were purchased from commercial vendors.
HIV latency is regulated by covalent modifications to provirus-associated histones that can promote or repress transcription. These modifications are mediated by a set of host cell enzyme complexes, including histone acetyl transferases (HATs), histone deacetylases (HDACs), histone methyltransferases (HMTs) and histone demethylases (HDMs). To investigate the role of these complexes in the establishment of HIV latency a primary CD4 T cell model of latency was examined. In this model, activated CD4 T cells are infected with a GFP expressing reporter strain of HIV. At 2 dpi, actively infected cells (GFP^+) are sorted to obtain a pure actively infected population, then cultured for 3-4 weeks (FIG. 1A). […] To examine the role of specific histone modifying enzymes in this system, actively infected (GFP^+) cells were isolated at 2 dpi and the cells cultured in the presence of a panel of inhibitors targeting chromatin modifying complexes. […] The infected cells were cultured in the presence of each inhibitor for up to 4 weeks. Each week post infection, the emergence of the latently infected (GFP^−) population was measured by flow cytometry (FIG. 1B).

[2] = tested on: HIV-dreGFP/Thy1.2 infected primary CD4 T cells; test: HDAC selective inhibitor experiments in HIV-dreGFP/Thy1.2 infected CD4 T cells (viral gene expression by flow cytometry); assay type: cell-based, human; conditions: cultured 14 d in the presence of inhibitor; FIG. 7B
From the text: FIGS. 7A-7D show Class I HDAC selective inhibitors reveal druggable dependency on HDAC1 and 2 in latency initiation. A. Schematic overview of HDAC selective inhibitor experiments. […] B. Dose response curve showing the proportion of cells with productive viral gene expression after two weeks of treatment with the indicated inhibitors. Data shown are from one representative cell donor conducted in technical triplicate. C. Time course flow cytometry experiment in HIV-GFP/Thy1.2 infected primary CD4 T cells cultured with the indicated inhibitors. […] D. Mean fluorescent intensity (MFI) of GFP signal in Thy1.2+ cells in data from C. Data shown are representative of three independent experiments.
However, the contribution and roles of individual HDACs are largely unknown. Because of the high homology of HDAC1 and HDAC2 in the enzyme activation site, selective inhibitors for HDAC1 or HDAC2 have not been developed. Thus, the impact of novel small molecules that inhibit both HDAC1 and HDAC2 (HDAC1/2i) or HDAC3 (HDAC3i) on HIV silencing in CD4 T cells was examined. Activated CD4 T cells were infected with HIV-dreGFP/Thy1.2 and cultured for 14 d in the presence of each inhibitor, and viral gene expression was measured by flow cytometry (FIG. 7A).

[3] = previous clinical studies, vorinostat dosing; cited from earlier work
[4] = tested on: HIV-eGFP infected CD4 T cells; test: Surface marker phenotype of HIV infected CD4 T cells by flow cytometry; assay type: cell-based, human; conditions: vorinostat exposure post stimulation, vs DMSO, FIG. 4
Description: HIV gene expression is regulated by a set of host cell transcription factors that vary in activity as CD4 T cells adopt different activation states and sub-lineage identities post activation. […] To investigate this possibility, flow cytometry was performed to examine the surface marker phenotype of HIV infected cells.

For `COc1cc2nc(N3CCCN(C)CC3)nc(NC3CCN(Cc4ccccc4)CC3)c2cc1OC` [BIX1294], which “effect on the formation of latently infected (GFP-) cells” value (“effect on the formation” for short) [1] is on record?
Its value is “modest reduction in the percentage of latently infected cells”.

Which “latency prevention (prevention of HIV silencing), dose response” value [2] does the source give for `Nc1cc(F)ccc1NC(=O)/C=C/c1cnn(C/C=C/c2ccccc2)c1` [RGFP966] here?
The value was “much lower extent”.

With `Nc1ncnc2c1ncn2[C@@H]1O[C@H](C[C@@H](N)CC[C@H](N)C(=O)O)[C@@H](O)[C@H]1O` [Singefungin, sinefungin] as the molecule, how does the “effect on the formation” value [1] read?
Its value is “no significant effect”.

For `CCCc1cc(C)[nH]c(=O)c1CNC(=O)c1cc(-c2ccc(N3CCN(C(C)C)CC3)nc2)cc2c1cnn2C(C)C` [UNC1999], which “effect on the formation” value [1] is on record?
The value was “modest reduction in the percentage of latently infected cells”.

For `CC(C)N(C[C@H]1O[C@@H](n2cnc3c(N)ncnc32)[C@H](O)[C@@H]1O)[C@H]1C[C@@H](CCc2nc3cc(C(C)(C)C)ccc3[nH]2)C1` [pinometostat], which “effect on the formation” value [1] is on record?
Its value is “no significant effect”.

For `O=C(CCCCCCC(=O)Nc1ccccc1)NO` [vorinostat], which “time of declining concentrations” value [3] is on record?
Its value is 6 to 24 h.

And the “time of peak concentrations” value [3]?
The value was 2 to 6 h.

What about the “GFP status of treated cells after removal of vorinostat” value ([1]; 2 weeks vorinostat, then 2 weeks culture without vorinostat, FIG. 2A) of the same molecule?
Its value is “remained mostly GFP^−”.

And the “percentage of latent (GFP-) cells” value ([1]; 3 weeks post infection, in the presence of vorinostat, DMSO 70%)?
Its value is 10%.

And the “reduction of latent (GFP-) population vs vehicle (DMSO)” value ([1]; 3 weeks post infection, from 70% (DMSO) to 10%)?
The value was 7 fold.

What about the “impact on HIV latency, vorinostat in media 0-14 days post infection” value ([1]; add in / wash out, latently infected cells measured at 3 wpi, FIG. 2B) of the same molecule?
The value was “significant impact”.

And the “impact on frequency of latently infected cells, addition or removal between 14 dpi and 21 dpi” value ([1]; add in / wash out, measured at 3 wpi, FIG. 2B)?
The value was “little impact”.

And the “emergence of latently infected cells, continuous exposure” value ([1]; continuous vorinostat 500 nM, 3 weeks post infection, FIG. 1C)?
The value was “potently prevented the emergence of latently infected cells”.

And the “effect on the formation” value [1]?
Its value is “potently inhibited the emergence of a latent (GFP^−) population”.

What about the “establishment of latency, pulsatile exposure” value ([1]; daily 6 h pulse of vorinostat 500 nM followed by 18 h wash-out, 3 weeks, FIG. 1C) of the same molecule?
The value was “significantly block the establishment of latency in a subset of cells”.

And the “suppression of HIV latency over a range of concentrations” value ([1]; exposure for two weeks to different vorinostat concentrations, FIG. 2A)?
Its value is “clear dose-dependent fashion”.

And the “fraction of cells with central memory phenotype (CD45RA- CCR7+)” value ([4]; 2-3 weeks post infection)?
Its value is “increased fraction”.

What about the “expression of CD4 T cell activation marker PD-1” value [4] of the same molecule?
The value was “did not lead to increased expression”.
